Source: PMC11421016, “Biotransformation and Epithelial Toxicity of Prenylated Phenolics from Licorice Roots (Glycyrrhiza spp.) in 3D Apical-Out Mucus-Producing Human Enteroids” (Journal of Agricultural and Food Chemistry, 2024)
Read-outs that look alike come from different tables or passages of the source.

Legend:
[1] = system: human ileal apical-out enteroids; assay: Cytotoxicity by LDH leakage assay in apical-out enteroids; format: cell-based; conditions: human
Description: (§1) Cytotoxicity and effects on cell viability after exposure to glab, licoA, and glycy in apical-out and apical-in enteroids (6.25–500 μg mL^–1) and proliferating Caco-2 cells (3.13–100 μg mL^–1) were determined by LDH leakage (Section 2.6.1) and WST-1 assays (Section 2.6.2), respectively. For this, stock solutions of 50 mg mL^–1 of glab, licoA, and glycy in DMSO were used. […] An overview of the experimental conditions for the exposure experiments with glab, licoA, and glycy is shown in Table S2 (Supporting Information). In brief, apical-out and apical-in enteroids were grown for 7–10 days in OGM (∼200 enteroids per dome), after which the medium was changed to ODM (supplemented with 5 μM DAPT) to initiate enteroid differentiation. To generate apical-out enteroids, MG was removed from apical-in enteroids in OGM at day 7–10, as described in Section 2.3, and suspended in supplemented ODM. After 3 days in ODM, the effects on cytotoxicity and cell viability of glab, licoA, and glycy in apical-out and apical-in enteroids (passages between 3 and 17) were assessed after 4 and 24 h of incubation. For apical-out enteroids in a suspension, enteroids were pelleted by centrifugation (2 min, 200g, RT), after which the ODM was removed and 500 μL of the experimental agent was added. […] Caco-2 cells were grown for 48 h after seeding before experiments (passages 14–19) with proliferating cells and for 21 days after seeding (passages 14–33) with differentiated cells.[17] The medium (DMEM supplemented with FCS) was changed every 2 days. For exposure experiments, Caco-2 cells were incubated with glab, licoA, and glycy in DMEM without FCS, as FCS serves as an exogenous source of LDH.[22]
(§2) Cytotoxic effects of glab, licoA, and glycy were assessed by measuring leakage of intracellular lactate dehydrogenase (LDH) in the supernatant and analyzed using an LDH cytotoxicity detection kit (Roche Applied Science, Almere, The Netherlands), according to the manufacturer’s instructions. The LDH activity in the supernatant was expressed as the percentage of the maximum releasable LDH in enteroids or Caco-2 cells (enteroids or Caco-2 cells treated with 1% (v/v) Triton X-100) and calculated with eq 1. [drawing 1] 1 in which exp. value is the UV absorbance at 492 nm (Tecan Spark or Tecan Infinite 200 Pro, Tecan Group Ltd., Zürich, Switzerland), background control is the medium with corresponding concentration of glab, licoA, or glycy, and high control is the maximum releasable LDH in enteroids or Caco-2 cells. For enteroids, each well was used as its own positive control by taking the total releasable LDH of each well after incubation.

[2] = Cell viability by WST-1 assay in apical-out enteroids; format: cell-based, human; conditions: human
Description: as §1
(§3) Effects on cell viability after stimulation by glab, licoA, and glycy were assessed by measuring cleavage of the tetrazolium salt WST-1 to formazan catalyzed by cellular mitochondrial dehydrogenases and analyzed using a WST-1 cell viability kit (PromoKine, Heidelberg, Germany), according to the manufacturer’s instructions. Cell viability was expressed as the percentage of the control cells (enteroids or Caco-2 cells grown in a medium) and was calculated with eq 2. [drawing 2] 2 in which exp. value is the UV absorbance at 450 nm (Tecan Spark or Tecan Infinite 200 Pro) and low control is the spontaneous cleavage of WST-1 to formazan by mitochondrial dehydrogenases in untreated enteroids or Caco-2 cells.

[3] = system: human ileal apical-in enteroids; assay: Cytotoxicity by LDH leakage assay in apical-in enteroids; format: cell-based; conditions: 4 h, cutoff 25% vs negative control
Description: as §1, §2

[4] = system: human ileal apical-in enteroids; assay: Cell viability by WST-1 assay in apical-in enteroids; format: cell-based; conditions: 4 h
Description: Cytotoxicity and effects on cell viability after exposure to glab, licoA, and glycy in apical-out and apical-in enteroids (6.25–500 μg mL^–1) and proliferating Caco-2 cells (3.13–100 μg mL^–1) were determined by LDH leakage (Section 2.6.1) and WST-1 assays (Section 2.6.2), respectively. For this, stock solutions of 50 mg mL^–1 of glab, licoA, and glycy in DMSO were used. […] An overview of the experimental conditions for the exposure experiments with glab, licoA, and glycy is shown in Table S2 (Supporting Information). […] After 3 days in ODM, the effects on cytotoxicity and cell viability of glab, licoA, and glycy in apical-out and apical-in enteroids (passages between 3 and 17) were assessed after 4 and 24 h of incubation. […]
as §3, with “[drawing 2] 2 in which exp. value is the UV absorbance at 450 nm (Tecan Spark or Tecan Infinite 200 Pro) and low control is the spontaneous cleavage of WST-1 to formazan by mitochondrial dehydrogenases in untreated enteroids or Caco-2 cells.” left out
For apical-in enteroids, the cleavage of WST-1 to formazan was assessed in the MG. […]

Caco-2 cells = assay: Cytotoxicity by LDH leakage assay in Caco-2 cells; format: cell-based, human; conditions: proliferating and differentiated Caco-2 cells (differentiated: ref 17), cutoff 25%
Description: The human colon adenocarcinoma cell line (Caco-2) was obtained from the American Type Culture Collection (ATCC; Manassas, VA, USA). Caco-2 cells were cultured in DMEM, in a humidified atmosphere of 5% CO2 at 37 °C until 80–90% confluency was reached. Effects on the cytotoxicity and cell viability (Section 2.6) were assessed in proliferating and differentiated Caco-2 cells. The effects on differentiated Caco-2 cells were recently described in our publication.[17] Proliferating and differentiated Caco-2 cells were seeded into 96-well plates at a density of 15,000 cells per cm^2.
Cytotoxicity and effects on cell viability after exposure to glab, licoA, and glycy in apical-out and apical-in enteroids (6.25–500 μg mL^–1) and proliferating Caco-2 cells (3.13–100 μg mL^–1) were determined by LDH leakage (Section 2.6.1) and WST-1 assays (Section 2.6.2), respectively. For this, stock solutions of 50 mg mL^–1 of glab, licoA, and glycy in DMSO were used. […] After 3 days in ODM, the effects on cytotoxicity and cell viability of glab, licoA, and glycy in apical-out and apical-in enteroids (passages between 3 and 17) were assessed after 4 and 24 h of incubation. […]
as §2, with “[drawing 1]” left out, “For enteroids, each well was used as its own positive control by taking the total releasable LDH of each well after incubation.” left out

[5] = system: human ileal apical-out enteroids; conditions: 12.5 μg mL^–1 (34–39 μM), 4 h exposure
Description: Effects on barrier integrity of apical-out enteroids after glab, licoA, and glycy exposure were evaluated with a dextran diffusion assay, adapted from Co et al.[14] […] Enteroids were allowed to settle by gravity (5 min) into a pellet, the FITC-dextran 4 kDa was aspirated, and enteroids were washed with DMEM/F12 (3 min, 250g, RT). Enteroids were suspended in fresh DMEM/F12, and they were imaged with an EVOS FL Auto 2 cell imaging system. Images were analyzed using ImageJ software (version 1.52).

[6] = system: human apical-out ileal enteroids; assay: Biotransformation in apical-out ileal enteroids (RP-UHPLC-PDA-MSn); format: in vitro ADME; conditions: for sulfation (LC-MS analysis): human ileal apical-out and apical-in enteroids; for biotransformation products formed: released on the apical side; for phase I biotransformation products: up to 24 h incubation
Description: (§4) Biotransformation of glab, licoA, and glycy in apical-out and apical-in enteroids was evaluated after 0, 4, and 24 h of incubation. For this, apical-out enteroids were stimulated with 50 μg mL^–1 (154 μM) glab, or with 100 μg mL^–1 licoA (296 μM), or 100 μg mL^–1 glycy (272 μM), and apical-in enteroids were stimulated with 50 μg mL^–1 glab (154 μM), 50 μg mL^–1 licoA (148 μM), or 50 μg mL^–1 glycy (136 μM). […] For apical-out enteroids, parent compounds and their transformation products were assessed on the enteroids’ apical (facing the medium) and basolateral side (inside the enteroids) and intracellularly. In apical-in enteroids, parent compounds and metabolites were assessed on the basolateral side (facing the medium). For the apical release, apical-out enteroids were pelleted (250g, 3 min, 4 °C), and the supernatant was used for LC-MS analysis, after which the enteroids were washed with PBS. Enteroids in a suspension in fresh PBS were broken up by vigorously pipetting up and down approximately for 20 times, after which enteroids were pelleted and the supernatant was used to determine basolateral release by using LC-MS. Enteroids were washed with PBS, and the enteroids’ cells in fresh PBS were disrupted on ice with a digital sonifier (Branson Ultrasonics Corporation, Danbury, CT, USA) with the following settings: a 5 s pulse, a 10 s pause, an amplitude of 55%, and 12 cycles. Enteroids were pelleted, and the supernatant was used as a measure for intracellular release and measured with LC-MS.
(§5) Samples were separated on a Thermo Vanquish UHPLC system (Thermo Scientific, San Jose, CA, USA) equipped with a pump, a degasser, an autosampler, and a PDA detector, as described elsewhere.[15] Eluents used were (A) LC-MS-grade MQ + 0.1% FA (v/v) and (B) LC-MS-grade ACN + 0.1% FA (v/v). The elution program was started by running isocratically at 1% B for 1.09 min followed by a 1.09–26.16 min linear gradient to 70% B, a 26.16–27.25 min linear gradient to 100% B, and 27.25–32.70 min isocratically at 100% B. The eluent was adjusted to start conditions in 1.09 min followed by equilibration of 5.45 min.
(§6) Mass spectrometric data were acquired using an LTQ Velos Pro linear ion trap mass spectrometer (Thermo Scientific), equipped with a heated ESI probe coupled in-line to the Vanquish UHPLC system, as described elsewhere.[15] Data were processed using Xcalibur 4.1 (Thermo Scientific).
(§7) Quantification of glab, licoA, glycy, and produced metabolites was based on UV absorbance at 280 nm (glab), 340–390 nm (licoA), and 320–370 nm (glycy). For this, a seven-point calibration (0.01–150 μg mL^–1) curve based on external standards of glab, licoA, and glycy (R^2 > 0.999) was used. UV peaks were integrated using the AVALON integration algorithm with the autocalc function (Xcalibur 4.1). Metabolites were quantified as glab, licoA, or glycy equivalents.

[7] = system: human apical-in ileal enteroids; assay: Biotransformation in apical-in ileal enteroids (RP-UHPLC-PDA-MSn); format: in vitro ADME; conditions: for biotransformation products formed: identified at the basolateral side; for phase I metabolites: up to 24 h incubation
Description: as §4, §5, §6, §7

[8] = Stability in the medium without enteroids; format: physicochemical; conditions: after 24 h of incubation
Description: as §7

Gram-positive bacteria = system: Gram-positive bacteria; design: method as in PMID 36377761; conditions: against Gram-positive bacteria, cited from earlier work
[9] = system: mouse jejunal apical-out enteroids; design: method as in PMID 38086658; conditions: jejunum, cutoff 25%; cited from earlier work
[10] = system: mouse jejunal apical-in enteroids; design: method as in PMID 38086658; conditions: jejunum, cutoff 25%; cited from earlier work
[11] = system: mouse jejunal apical-out enteroids; design: method as in PMID 38086658; conditions: jejunum, cutoff 25%; cited from earlier work; remark: listed apart in the source
[12] = system: human CYP enzymes (i.e., CYP3A4); design: method as in PMID 17220245, PMID 28774812, PMID 12019199, PMID 26100226; conditions: cited from earlier work

| SMILES | fold higher concentration for significant cytotoxicity in apical-out vs apical-in enteroids [1] | viability at 4 h, 500 μg mL^–1 [2] [%] | highest nontoxic concentration (LDH) (Caco-2 cells) | epithelial barrier (membrane) integrity [5] | sulfation (LC-MS analysis) [6] | biotransformation products formed [6] | phase I biotransformation products [6] | biotransformation products formed [7] | phase I metabolites [7] | recovery in the medium (without enteroids) [8] [%] | minimum inhibitory concentration (MIC) (Gram-positive bacteria) [μg mL^–1] | minimum inhibitory concentration (MIC) (Gram-positive bacteria; equivalent of 12.5 μg mL^–1) [µM] | inhibition of human CYP enzymes (i.e., CYP3A4) [12] | also measured |
| --- | --- | --- | --- | --- | --- | --- | --- | --- | --- | --- | --- | --- | --- | --- |
| CC1(C)C=Cc2c(ccc3c2OC[C@@H](c2ccc(O)cc2O)C3)O1 [glabridin] | 3-5 fold | 21 ± 14 | around 75 μM | did not seem to disrupt | did not reveal sulfation | glucuronide metabolites | No phase I biotransformation products | transformed to their glucuronides | no phase I metabolites were identified | 101 ± 2.2 | 12.5 | 39 | inhibition | viability at 4 h, 771 µM [2]: 29%; highest nontoxic concentration (LDH) ([3]; listed as Glabridin): 100 μg mL^–1; highest nontoxic concentration (LDH) ([3]; listed as glab): around 300 μM; highest nonreducing viability concentration (WST-1) [4]: 100 μg mL^–1; highest noncytotoxic concentration [9]: 250 μg mL^–1; highest noncytotoxic concentration [10]: 75 μg mL^–1; highest nonreducing viability concentration [11]: 50 μg mL^–1 |
| COc1c(CC=C(C)C)c(O)cc2oc(=O)c(-c3ccc(O)cc3O)cc12 [glycycoumarin] | 3-5 fold | 77 ± 13 | around 75 μM | did not seem to disrupt | did not reveal sulfation | glucuronide metabolites | No phase I biotransformation products | transformed to their glucuronides | no phase I metabolites were identified | 101 ± 3.0 | 12.5 | 34 | inhibition | cytotoxicity (LDH) ([1]; 4 h, 500 μg mL^–1): −2 ± 2%; highest nontoxic concentration (LDH) [3]: around 300 μM |
